Test results as given in patent US12077503B2, “Substituted cyclic amides and their use as herbicides” (FMC CORPORATION, priority 2015, dated 2024).

How the values were obtained:
Assay type in all cases: in vivo
[1] = system: giant foxtail (Setaria faberi); experiment: Test G Post-Emergence Protocol
Experimental: (§1) Seeds of corn (Zea mays), giant foxtail (Setaria faberi), barnyardgrass (Echinochloa crus-galli), ivy-leaved morning glory (Ipomoea hederacea), redroot pigweed (Amaranthus retroflexus) and velvetleaf (Abutilon theophrasti) were sown in standard soil in pots. After cultivation for 8 days under controlled conditions in a glasshouse (at 24/16° C., day/night; 14 hours light; 65% humidity), the plants were sprayed with an aqueous spray solution derived from the formulation of the technical active ingredient in acetone/water (50:50) solution containing 0.5% Tween 20 (polyoxyethylene sorbitan monolaurate, CAS RN 9005-64-5) to give a final dose of 15.625, 62.5 or 250 g/ha of test compound.
(§2) The test plants were then grown on under controlled conditions in a glasshouse (at 24/16° C., day/night; 14 hours light; 65% humidity) and watered twice daily. After 13 days the test was evaluated (100=total damage to plant; 0=no damage to plant). A dash (-) means no test result.

[2] = system: velvetleaf (Abutilon theophrasti); experiment: Test G Post-Emergence Protocol
Experimental: as §1, §2

[3] = system: barnyardgrass (Echinochloa crus-galli); experiment: Test G Post-Emergence Protocol
Experimental: as §1, §2

[4] = system: redroot pigweed (Amaranthus retroflexus); experiment: Test G Post-Emergence Protocol
Experimental: as §1, §2

[5] = system: ivy-leaved morning glory (Ipomoea hederacea); experiment: Test G Post-Emergence Protocol
Experimental: as §1, §2

corn (Zea mays) [6] = experiment: Test G Post-Emergence Protocol
Experimental: as §1, §2

[7] = system: giant foxtail (Setaria faberi); experiment: Test G Pre-Emergence Protocol; settings: evaluated after 13 days
Experimental: as §1, with “one day” for “8 days”
as §2

[8] = system: velvetleaf (Abutilon theophrasti); experiment: Test G Pre-Emergence Protocol; settings: evaluated after 13 days
Experimental: as §1, with “one day” for “8 days”
as §2

[9] = system: barnyardgrass (Echinochloa crus-galli); experiment: Test G Pre-Emergence Protocol; settings: evaluated after 13 days
Experimental: as §1, with “one day” for “8 days”
as §2

[10] = system: redroot pigweed (Amaranthus retroflexus); experiment: Test G Pre-Emergence Protocol; settings: evaluated after 13 days
Experimental: as §1, with “one day” for “8 days”
as §2

[11] = system: ivy-leaved morning glory (Ipomoea hederacea); experiment: Test G Pre-Emergence Protocol; settings: evaluated after 13 days
Experimental: as §1, with “one day” for “8 days”
as §2

corn (Zea mays) [12] = experiment: Test G Pre-Emergence Protocol; settings: evaluated after 13 days
Experimental: as §1, with “one day” for “8 days”
as §2

[13] = 15.625 g ai/ha, evaluated after 13 days (100=total damage to plant; 0=no damage to plant)
[14] = 62.5 g ai/ha, evaluated after 13 days, 100=total damage to plant, 0=no damage to plant
[15] = 250 g ai/ha, evaluated after 13 days, 100=total damage to plant, 0=no damage to plant
[16] = 62.5 g ai/ha, 100=total damage to plant, 0=no damage to plant
[17] = 62.5 g ai/ha, evaluated after 13 days
[18] = 250 g ai/ha, evaluated after 13 days

Cc1cccc(NC(=O)[C@H]2C(=O)N(C)C[C@@H]2c2ccc(C(F)(F)F)cc2)c1S(C)(=O)=O (racemic) [Compound 1677]
Foxtail, Giant damage rating [1, 13]: 10
Foxtail, Giant damage rating [1, 14]: 30
Foxtail, Giant damage rating [1, 15]: 50
Velvetleaf damage rating [2, 13]: 0
Velvetleaf damage rating [2, 14]: 0
Velvetleaf damage rating [2, 15]: 0
Barnyardgrass damage rating [3, 13]: 0
Barnyardgrass damage rating [3, 14]: 10
Barnyardgrass damage rating [3, 15]: 10
Pigweed, Redroot damage rating [4, 13]: 0
Pigweed, Redroot damage rating [4, 14]: 0
Pigweed, Redroot damage rating [4, 15]: 0
Morningglory, Ivy-leaved damage rating [5, 13]: 0
Morningglory, Ivy-leaved damage rating [5, 14]: 0
Morningglory, Ivy-leaved damage rating [5, 15]: 0
Corn damage rating (corn (Zea mays) [6]; [13]): 0
Corn damage rating (corn (Zea mays) [6]; [14]): 0
Corn damage rating (corn (Zea mays) [6]; [15]): 0
Foxtail, Giant damage rating (100=total damage to plant; 0=no damage to plant) ([7]; 15.625 g ai/ha): 10
Foxtail, Giant damage rating [7, 16]: 40
Foxtail, Giant damage rating (100=total damage to plant; 0=no damage to plant) ([7]; 250 g ai/ha): 70
Velvetleaf damage rating (100=total damage to plant; 0=no damage to plant) ([8]; 15.625 g ai/ha): 0
Velvetleaf damage rating [8, 16]: 0
Velvetleaf damage rating (100=total damage to plant; 0=no damage to plant) ([8]; 250 g ai/ha): 0
Barnyardgrass damage rating (100=total damage to plant; 0=no damage to plant) ([9]; 15.625 g ai/ha): 0
Barnyardgrass damage rating [9, 16]: 0
Barnyardgrass damage rating (100=total damage to plant; 0=no damage to plant) ([9]; 250 g ai/ha): 10
Pigweed, Redroot damage rating (100=total damage to plant; 0=no damage to plant) ([10]; 15.625 g ai/ha): 0
Pigweed, Redroot damage rating [10, 16]: 0
Pigweed, Redroot damage rating (100=total damage to plant; 0=no damage to plant) ([10]; 250 g ai/ha): 0
Morningglory, Ivy-leaved damage rating (100=total damage to plant; 0=no damage to plant) ([11]; 15.625 g ai/ha): 0
Morningglory, Ivy-leaved damage rating [11, 16]: 0
Morningglory, Ivy-leaved damage rating (100=total damage to plant; 0=no damage to plant) ([11]; 250 g ai/ha): 0
Corn damage rating (100=total damage to plant; 0=no damage to plant) (corn (Zea mays) [12]; 15.625 g ai/ha): 0
Corn damage rating (corn (Zea mays) [12]; [16]): 0
Corn damage rating (100=total damage to plant; 0=no damage to plant) (corn (Zea mays) [12]; 250 g ai/ha): 0

Cc1nc(Cl)ccc1[C@@H]1CN(C)C(=O)[C@H]1C(=O)Nc1cccc(F)c1F [Compound 1463]
Foxtail, Giant damage rating [1, 13]: 0
Foxtail, Giant damage rating (100=total damage to plant; 0=no damage to plant) [1, 17]: 0
damage to plant, Foxtail, Giant (100=total damage to plant; 0=no damage to plant) [1, 18]: 70
Velvetleaf damage rating [2, 13]: 0
Velvetleaf damage rating (100=total damage to plant; 0=no damage to plant) [2, 17]: 10
damage to plant, Velvetleaf (100=total damage to plant; 0=no damage to plant) [2, 18]: 20
Barnyardgrass damage rating [3, 13]: 0
Barnyardgrass damage rating (100=total damage to plant; 0=no damage to plant) [3, 17]: 0
damage to plant, Barnyardgrass (100=total damage to plant; 0=no damage to plant) [3, 18]: 30
Pigweed, Redroot damage rating [4, 13]: 0
Pigweed, Redroot damage rating (100=total damage to plant; 0=no damage to plant) [4, 17]: 10
damage to plant, Pigweed, Redroot (100=total damage to plant; 0=no damage to plant) [4, 18]: 10
Morningglory, Ivy-leaved damage rating [5, 13]: 0
Morningglory, Ivy-leaved damage rating (100=total damage to plant; 0=no damage to plant) [5, 17]: 0
damage to plant, Morningglory, Ivy-leaved (100=total damage to plant; 0=no damage to plant) [5, 18]: 20
Corn damage rating (corn (Zea mays) [6]; [13]): 0
Corn damage rating (100=total damage to plant; 0=no damage to plant) (corn (Zea mays) [6]; [17]): 10
damage to plant, Corn (100=total damage to plant; 0=no damage to plant) (corn (Zea mays) [6]; [18]): 10
Foxtail, Giant damage rating (100=total damage to plant; 0=no damage to plant) ([7]; 15.625 g ai/ha): 0
plant damage rating, Foxtail, Giant [7, 16]: 70
Foxtail, Giant damage rating (100=total damage to plant; 0=no damage to plant) ([7]; 250 g ai/ha): 90
Velvetleaf damage rating (100=total damage to plant; 0=no damage to plant) ([8]; 15.625 g ai/ha): 0
plant damage rating, Velvetleaf [8, 16]: 0
Velvetleaf damage rating (100=total damage to plant; 0=no damage to plant) ([8]; 250 g ai/ha): 0
Barnyardgrass damage rating (100=total damage to plant; 0=no damage to plant) ([9]; 15.625 g ai/ha): 10
plant damage rating, Barnyardgrass [9, 16]: 50
Barnyardgrass damage rating (100=total damage to plant; 0=no damage to plant) ([9]; 250 g ai/ha): 90
Pigweed, Redroot damage rating (100=total damage to plant; 0=no damage to plant) ([10]; 15.625 g ai/ha): 0
plant damage rating, Pigweed, Redroot [10, 16]: 0
Pigweed, Redroot damage rating (100=total damage to plant; 0=no damage to plant) ([10]; 250 g ai/ha): 0
Morning-glory, Ivy-leaved damage rating (100=total damage to plant; 0=no damage to plant) ([11]; 15.625 g ai/ha): 0
plant damage rating, Morningglory, Ivy-leaved [11, 16]: 0
Morningglory, Ivy-leaved damage rating (100=total damage to plant; 0=no damage to plant) ([11]; 250 g ai/ha): 0
Corn damage rating (100=total damage to plant; 0=no damage to plant) (corn (Zea mays) [12]; 15.625 g ai/ha): 0
plant damage rating, Corn (corn (Zea mays) [12]; [16]): 0
Corn damage rating (100=total damage to plant; 0=no damage to plant) (corn (Zea mays) [12]; 250 g ai/ha): 0

CCOc1cc(F)cc(C2CN(C)C(=O)C2C(=O)Nc2cccc(F)c2F)c1 (centres unmarked) [Compound 1695]
pest or weed control at 15.625 g/ha ([1]; Setaria faberi, post-emergence, 312 h, 15.625 g ai/ha, evaluated after 13 days (100=total damage to plant; 0=no damage to plant), read-out: Foxtail, Giant damage rating): 80%
pest or weed control at 62.5 g/ha ([1]; Setaria faberi, post-emergence, 312 h, 62.5 g ai/ha, evaluated after 13 days, 100=total damage to plant, 0=no damage to plant, read-out: Foxtail, Giant damage rating): 80%
pest or weed control at 15.625 g/ha ([2]; Abutilon theophrasti, post-emergence, 312 h, 15.625 g ai/ha, evaluated after 13 days (100=total damage to plant; 0=no damage to plant), read-out: Velvetleaf damage rating): 0%
pest or weed control at 62.5 g/ha ([2]; Abutilon theophrasti, post-emergence, 312 h, 62.5 g ai/ha, evaluated after 13 days, 100=total damage to plant, 0=no damage to plant, read-out: Velvetleaf damage rating): 10%
pest or weed control at 15.625 g/ha ([3]; Echinochloa crus-galli, post-emergence, 312 h, 15.625 g ai/ha, evaluated after 13 days (100=total damage to plant; 0=no damage to plant), read-out: Barnyardgrass damage rating): 80%
pest or weed control at 62.5 g/ha ([3]; Echinochloa crus-galli, post-emergence, 312 h, 62.5 g ai/ha, evaluated after 13 days, 100=total damage to plant, 0=no damage to plant, read-out: Barnyardgrass damage rating): 80%
pest or weed control at 15.625 g/ha ([4]; Amaranthus retroflexus, post-emergence, 312 h, 15.625 g ai/ha, evaluated after 13 days (100=total damage to plant; 0=no damage to plant), read-out: Pigweed, Redroot damage rating): 10%
pest or weed control at 62.5 g/ha ([4]; Amaranthus retroflexus, post-emergence, 312 h, 62.5 g ai/ha, evaluated after 13 days, 100=total damage to plant, 0=no damage to plant, read-out: Pigweed, Redroot damage rating): 10%
pest or weed control at 15.625 g/ha ([5]; Ipomoea, post-emergence, 312 h, 15.625 g ai/ha, evaluated after 13 days (100=total damage to plant; 0=no damage to plant), read-out: Morningglory, Ivy-leaved damage rating): 10%
pest or weed control at 62.5 g/ha ([5]; Ipomoea, post-emergence, 312 h, 62.5 g ai/ha, evaluated after 13 days, 100=total damage to plant, 0=no damage to plant, read-out: Morningglory, Ivy-leaved damage rating): 20%
plant injury at 15.625 g/ha (corn (Zea mays) [6]; Zea mays, post-emergence, 312 h, 15.625 g ai/ha, evaluated after 13 days (100=total damage to plant; 0=no damage to plant), read-out: Corn damage rating): 30%
plant injury at 62.5 g/ha (corn (Zea mays) [6]; Zea mays, post-emergence, 312 h, 62.5 g ai/ha, evaluated after 13 days, 100=total damage to plant, 0=no damage to plant, read-out: Corn damage rating): 70%
pest or weed control at 15.625 g/ha ([7]; Setaria faberi, pre-emergence, 312 h, 15.625 g ai/ha, read-out: Foxtail, Giant damage rating (100=total damage to plant; 0=no damage to plant)): 70%
pest or weed control at 62.5 g/ha ([7]; Setaria faberi, pre-emergence, 312 h, 62.5 g ai/ha, 100=total damage to plant, 0=no damage to plant, read-out: Foxtail, Giant damage rating): 90%
pest or weed control at 15.625 g/ha ([8]; Abutilon theophrasti, pre-emergence, 312 h, 15.625 g ai/ha, read-out: Velvetleaf damage rating (100=total damage to plant; 0=no damage to plant)): 0%
pest or weed control at 62.5 g/ha ([8]; Abutilon theophrasti, pre-emergence, 312 h, 62.5 g ai/ha, 100=total damage to plant, 0=no damage to plant, read-out: Velvetleaf damage rating): 0%
pest or weed control at 15.625 g/ha ([9]; Echinochloa crus-galli, pre-emergence, 312 h, 15.625 g ai/ha, read-out: Barnyardgrass damage rating (100=total damage to plant; 0=no damage to plant)): 50%
pest or weed control at 62.5 g/ha ([9]; Echinochloa crus-galli, pre-emergence, 312 h, 62.5 g ai/ha, 100=total damage to plant, 0=no damage to plant, read-out: Barnyardgrass damage rating): 90%
pest or weed control at 15.625 g/ha ([10]; Amaranthus retroflexus, pre-emergence, 312 h, 15.625 g ai/ha, read-out: Pigweed, Redroot damage rating (100=total damage to plant; 0=no damage to plant)): 0%
pest or weed control at 62.5 g/ha ([10]; Amaranthus retroflexus, pre-emergence, 312 h, 62.5 g ai/ha, 100=total damage to plant, 0=no damage to plant, read-out: Pigweed, Redroot damage rating): 0%
pest or weed control at 15.625 g/ha ([11]; Ipomoea, pre-emergence, 312 h, 15.625 g ai/ha, read-out: Morningglory, Ivy-leaved damage rating (100=total damage to plant; 0=no damage to plant)): 0%
plant injury at 15.625 g/ha (corn (Zea mays) [12]; Zea mays, pre-emergence, 312 h, 15.625 g ai/ha, read-out: Corn damage rating (100=total damage to plant; 0=no damage to plant)): 10%
plant injury at 62.5 g/ha (corn (Zea mays) [12]; Zea mays, pre-emergence, 312 h, 62.5 g ai/ha, 100=total damage to plant, 0=no damage to plant, read-out: Corn damage rating): 40%
